Measurements as given in paper PMC7193450 (Asian Journal of Pharmaceutical Sciences, 2018).
Blank lines part the entries; values can stand above or below the molecule they belong to.

Experiments:
rat kidney slices = experiment: In vitro uptake in rat kidney slices; type: in vitro ADME; details: for Uptake in rat kidney slices at 37 °C compared with 4 °C: 100 µM; for Effect on the uptake of cilastatin in rat kidney slices / Effect on the uptake of imipenem in rat kidney slices: inhibitor 200 µM; for Effect on the uptake of cilastatin in rat kidney slices: cilastatin 100 µM; for Effect on the uptake of imipenem in rat kidney slices: imipenem 100 µM
human OAT3 (hOAT3) = molecular target: T1, human OAT3 (hOAT3) (Homo sapiens, UniProt Q8TCC7); experiment: In vitro transporter uptake assay in hOAT3-HEK293 cells; type: in vitro ADME; details: for Uptake in hOAT3-HEK293 cells compared with mock cells: 100 µM
T1 sequence (Q8TCC7 1-542): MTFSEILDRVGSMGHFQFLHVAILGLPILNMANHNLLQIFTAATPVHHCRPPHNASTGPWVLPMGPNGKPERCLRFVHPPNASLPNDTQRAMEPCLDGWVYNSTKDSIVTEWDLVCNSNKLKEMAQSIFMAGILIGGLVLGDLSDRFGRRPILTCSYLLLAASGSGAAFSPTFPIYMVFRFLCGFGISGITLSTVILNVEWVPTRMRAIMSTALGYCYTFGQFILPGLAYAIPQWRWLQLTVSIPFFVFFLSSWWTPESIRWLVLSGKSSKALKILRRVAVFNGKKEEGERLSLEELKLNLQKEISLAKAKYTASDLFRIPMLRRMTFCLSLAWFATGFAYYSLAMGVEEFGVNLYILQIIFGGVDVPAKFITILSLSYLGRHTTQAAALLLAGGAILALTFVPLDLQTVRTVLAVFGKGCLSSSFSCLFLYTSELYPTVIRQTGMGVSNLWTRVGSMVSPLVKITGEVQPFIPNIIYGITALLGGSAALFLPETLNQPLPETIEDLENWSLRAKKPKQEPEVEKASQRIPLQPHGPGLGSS

[1] = Pharmacokinetic interaction in vivo in rats; details: rat; for AUC(0-inf) / C0 / clearance / half-life: Wistar, plasma, iv; for AUC(0-inf) / C0 / clearance / half-life / Cumulative urinary excretion over 8 h, compared with alone group: 45 mg/kg; for AUC(0-inf): AUC0→∞; for clearance: CLP; for half-life: T1/2β; for Cumulative urinary excretion over 8 h, compared with alone group: with probenecid 100 mg/kg
OAT3 = molecular target: T2, OAT3 (Homo sapiens, UniProt Q8TCC7); experiment: In vitro transporter uptake assay in hOAT3-HEK293 cells; type: in vitro ADME; details: human, HEK293 cells transfected with human OAT3 (hOAT3-HEK293), pH 7.4
T2 sequence (Q8TCC7 1-542): T1 sequence (Q8TCC7 1-542)

OAT1 = molecular target: T3, OAT1 (Homo sapiens, UniProt Q4U2R8); experiment: In vitro transporter uptake assay in hOAT1-HEK293 cells; details: human, pH 7.4
T3 sequence (Q4U2R8 1-563): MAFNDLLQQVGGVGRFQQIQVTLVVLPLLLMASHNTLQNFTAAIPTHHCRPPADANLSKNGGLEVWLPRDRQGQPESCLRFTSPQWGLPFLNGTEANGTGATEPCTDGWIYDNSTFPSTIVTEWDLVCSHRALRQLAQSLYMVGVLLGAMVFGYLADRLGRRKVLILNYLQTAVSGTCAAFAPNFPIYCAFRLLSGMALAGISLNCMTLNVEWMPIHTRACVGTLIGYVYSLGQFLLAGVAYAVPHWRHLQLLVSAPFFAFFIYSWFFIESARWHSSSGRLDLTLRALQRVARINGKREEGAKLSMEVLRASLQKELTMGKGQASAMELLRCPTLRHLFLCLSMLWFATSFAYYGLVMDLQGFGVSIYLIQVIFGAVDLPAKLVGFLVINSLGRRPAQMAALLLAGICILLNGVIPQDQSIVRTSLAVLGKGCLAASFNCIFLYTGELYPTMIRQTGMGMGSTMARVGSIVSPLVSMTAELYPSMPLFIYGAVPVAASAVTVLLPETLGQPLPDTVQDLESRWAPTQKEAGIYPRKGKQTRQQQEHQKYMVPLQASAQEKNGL

human OAT1 (hOAT1) = molecular target: T4, human OAT1 (hOAT1) (Homo sapiens, UniProt Q4U2R8); experiment: as above
T4 sequence (Q4U2R8 1-563): T3 sequence (Q4U2R8 1-563)

[2] = substrate: CC1(C)C[C@@H]1C(=O)N/C(=C\CCCCSC[C@H](N)C(=O)O)C(=O)O; experiment: cells, lysate or membranes named; details: other: hOAT3-HEK293 cells, alone, 1 min uptake, 0–2000 µM; pH 7.4; 37.0 °C
[3] = of cilastatin, i.v., cilastatin + imipenem, 45 mg/kg for both
[4] = C0, rat, single administration (alone)
[5] = imipenem 100 µM, cilastatin 0–2000 µM, Eadie–Hofstee plot
[6] = of imipenem, i.v., imipenem + cilastatin, 45 mg/kg for both

Uptake in rat kidney slices at 37 °C compared with 4 °C (rat kidney slices): significantly higher | Uptake in hOAT3-HEK293 cells compared with mock cells (human OAT3 (hOAT3)): significantly higher | AUC(0-inf) [1, 3]: 84700 ng·h/mL | AUC(0-inf) ([1]; single administration (alone)): 56500 ng·h/mL | C0 ([1]; C0, of cilastatin, i.v., cilastatin + imipenem, 45 mg/kg for both): 175 ± 11.1 µg/mL | C0 [1, 4]: 156 ± 3.6 µg/mL | clearance [1, 3]: 8.9 ± 0.3 mL/min/kg | clearance ([1]; single administration (alone)): 13.3 ± 0.1 mL/min/kg | half-life [1, 3]: 28.6 ± 4 min | half-life ([1]; single administration (alone)): 19.7 ± 0.8 min | Cumulative urinary excretion over 8 h, compared with alone group ([1]; i.v.): significantly decreased | Cumulative urinary excretion of cilastatin, compared with cilastatin alone group ([1]; i.v., co-administered with imipenem, 45 mg/kg for both): decreased significantly
Molecule: CC1(C)C[C@@H]1C(=O)N/C(=C\CCCCSC[C@H](N)C(=O)O)C(=O)O [Cilastatin]

Uptake in rat kidney slices at 37 °C compared with 4 °C (rat kidney slices): significantly higher | Km at 1 min (OAT3): 759 ± 62 µM | Uptake in hOAT3-HEK293 cells compared with mock cells (human OAT3 (hOAT3)): significantly higher | Vmax (human OAT3 (hOAT3); hOAT3, alone): 0.329 ± 0.036 nmol/mg protein/min | Vmax (human OAT3 (hOAT3); hOAT3-HEK293 cells, alone, 1 min uptake, 0–2000 µM): 0.329 ± 0.036 nmol/mg protein/1 min | Inhibitory type on the uptake of cilastatin in hOAT3-HEK293 cells (human OAT3 (hOAT3); [5]): competitive | Km at 1 min (OAT1): 631 ± 30 µM | Uptake in hOAT1-HEK293 cells compared with mock cells (human OAT1 (hOAT1); 100 µM): significantly higher | Vmax (human OAT1 (hOAT1); hOAT1, alone): 0.223 ± 0.011 nmol/mg protein/min | Vmax (human OAT1 (hOAT1); hOAT1-HEK293 cells, alone, 1 min uptake, 0–2000 µM): 0.223 ± 0.011 nmol/mg protein/1 min | Inhibitory type on the uptake of cilastatin in hOAT1-HEK293 cells (human OAT1 (hOAT1); [5]): competitive | AUC(0-inf) [1, 6]: 92400 ng·h/mL | AUC(0-inf) ([1]; single administration (alone)): 34800 ng·h/mL | C0 ([1]; C0, of imipenem, i.v., imipenem + cilastatin, 45 mg/kg for both): 187 ± 13.5 µg/mL | C0 [1, 4]: 129 ± 2.6 µg/mL | clearance [1, 6]: 8.1 ± 0.4 mL/min/kg | clearance ([1]; single administration (alone)): 21.6 ± 0.4 mL/min/kg | half-life [1, 6]: 62 ± 1.4 min | half-life ([1]; single administration (alone)): 18.5 ± 2.8 min | Cumulative urinary excretion over 8 h, compared with alone group ([1]; i.v.): significantly decreased
Molecule: C[C@@H](O)[C@H]1C(=O)N2C(C(=O)O)=C(SCCN=CN)C[C@H]12 [Imipenem]

Molecule: Nc1ccc(C(=O)NCC(=O)O)cc1 [PAH, p-aminohippurate]
Effect on the uptake of cilastatin in rat kidney slices (rat kidney slices): inhibited | Effect on the uptake of imipenem in rat kidney slices (rat kidney slices): inhibited

Effect on uptake of imipenem and cilastatin in hOAT3-HEK293 cells (human OAT3 (hOAT3); PCG 200 µM, imipenem 100 µM, cilastatin 100 µM): significantly inhibited
Molecule: CC1(C)S[C@@H]2[C@H](NC(=O)Cc3ccccc3)C(=O)N2[C@H]1C(=O)O [PCG, benzylpenicillin]
Effect on the uptake of cilastatin in rat kidney slices (rat kidney slices): inhibited | Effect on the uptake of imipenem in rat kidney slices (rat kidney slices): inhibited

Molecule: CC[N+](CC)(CC)CC [TEA, tetraethyl ammonium]
Effect on the uptake of cilastatin in rat kidney slices (rat kidney slices): not TEA inhibited | Effect on the uptake of imipenem in rat kidney slices (rat kidney slices): not TEA inhibited

Molecule: CCCN(CCC)S(=O)(=O)c1ccc(C(=O)O)cc1 [probenecid, Probenecid]
Effect on the uptake of cilastatin in rat kidney slices (rat kidney slices): inhibited | Effect on the uptake of imipenem in rat kidney slices (rat kidney slices): inhibited

B1: human OAT3 (hOAT3) (Homo sapiens) (protein)
chain: T1 sequence (Q8TCC7 1-542)
Km [2]: 238 ± 2 µM | Vmax [2]: 0.000751 µmol/min/mg
